{"source": "patent US20240165047A1", "about": "“Use Of Honokiol In Preparation Of Drug For Treating Meningioma” (Chengdu Jinrui Foundation Biotech Co., Ltd., priority 2021, published 2024)", "key": {"[1]": {"assay": "Phase I clinical trial of clinical safety and tolerance of honokiol liposome for injection, safety analysis set (patients with advanced malignant solid tumors)", "type": "in vivo, human", "details": "summary statement of the clinical trials", "source_text": "(§1) Description of the Subject: • person; • on Jan. […] 27, 2018, the subject underwent the resection of a deep skull bottom lesion, endothelial meningoma, and local lesion being hemangioma-type meningoma, accompanied by bleeding, showing the non-typical meningioma, infiltrating bone tissue, comprehensive to malignant meningoma; immunohistochemistry: EMA (positive), PR (scattered in a little positive), SSTR (focal positive), CD34 (blood vessel positive), CD99 (+), S100 (-), Syn (-), CgA (-), CK (occasionally positive), Ki67 (about 8-20%); • in February 2019, the subject was treated for intracranial infection; • in June 2019, the subject received whole brain radiotherapy; • on Mar. 5, 2021, the subject re-examined the cranial MR and the tumor recurred; in order to further treat, at the outpatient of Beijing […] […]"}, "[2]": {"test_system": "meningioma", "assay": "Phase I clinical trial of honokiol liposome for injection: cranial MR re-examination of meningioma patients, RANO standard", "type": "in vivo, human", "details": "summary statement of the clinical trials", "source_text": "as §1"}}}
{"molecule": "C=CCc1ccc(O)c(-c2ccc(O)c(CC=C)c2)c1", "note": "[honokiol, 3′,5-di-2-propenyl-1,1′-biphenyl-2,4′-diphenol]", "values": [{"measurement": "overall safety and tolerance in clinical trials", "setting": "[1]", "value": "good safety and tolerance"}, {"measurement": "overall efficacy against meningioma in clinical trials", "setting": "[2]", "value": "effectively treat the meningioma"}]}
